One test has as its system NB13 (Neuroblastoma). In words: combination Emax (second highest fraction inhibited in the dose matrix, 72 h); higher = more inhibition; extreme values may be limits of the assay. The method in brief:
(§1)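 Cell lines in DMEM/F12 or RPMI with 10% FBS were plated in 1536-well plates, held 24 hours at 37°C, 5% CO2, then given two-drug dose matrices for 72 hours (DMSO typically 0.2%). Viability was read by CellTiter-Glo 2.0 luminescence and scaled as inhibition from 0 (vehicle wells) to 1 (blank wells). Combination Emax is the second-highest inhibition in the matrix; Bliss excess is observed combination effect minus expected EA + EB − EA·EB, EA and EB being single-agent effects.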

The test system of another test is 769-P (Kidney Carcinoma). In words: Bliss excess, mean over the matrix (fraction); higher = more synergy. The method in brief:
as §1

The subject of the next test is IM-9 (Non-Cancerous). Described as above. Summed up: as §1
The test system of test [1] is LU-165 (Small Cell Lung Carcinoma). Described as above. The method in brief:
as §1

The subject of test [2] is SK-HEP-1 (Hepatocellular Carcinoma). The description is as above. Summed up:
as §1

The test system of test [3] is CGTH-W-1 (Thyroid Gland Carcinoma). Described as above. The method in brief:
as §1

Test [4] concerns MDA-MB-436 (Breast Carcinoma). The test is described as above. The method in brief:
as §1

Test [5] concerns A2780 (Ovarian Carcinoma). The test is described as above. The method in brief:
as §1

A further test relates to 5637 (Bladder Carcinoma). In words: combination Emax (second highest fraction inhibited in the dose matrix, 72 h); higher = more inhibition; extreme values may be limits of the assay. Summed up:
as §1

Test [6] deals with ESO26 (Esophageal Adenocarcinoma). Described as above. The method in brief: as §1
In test [7] the test system is NCI-H716 (Colorectal Carcinoma). The description is as above. Summed up: as §1
For test [8], the system named is CA46 (Burkitt's Lymphoma). The description is as above. The method in brief:
as §1

Test [9] deals with OACp4C (Esophageal Adenocarcinoma). The test is described as above. The method in brief:
as §1

Test [10] relates to GCT (Other Solid Carcinomas). The description is as above. The method in brief: as §1
Test [11] concerns Jurkat (T-Lymphoblastic Leukemia). Described as above. The method in brief:
as §1

The subject of test [12] is NCI-H2228 (Lung Adenocarcinoma). The description is as above. Summed up:
as §1

In test [13] the test system is HT55 (Colorectal Carcinoma). The test is described as above. Summed up: as §1
Test [14] relates to JIMT-1 (Breast Carcinoma). Described as above. Summed up: as §1
In test [15] the test system is HCC1428 (Breast Carcinoma). The description is as above. Summed up: as §1
In test [16] the test system is KYSE-140 (Esophageal Squamous Cell Carcinoma). The description is as above. The method in brief: as §1

The structures appear in SMILES notation.
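Throughout, for Bliss excess, mean over the matrix: after 72 h of two-drug dosing.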

As for `CN(CCO)CC[C@H](CSc1ccccc1)Nc1ccc(S(=O)(=O)NC(=O)c2ccc(N3CCC([C@@H](O)c4ccccc4-c4ccc(Cl)cc4)CC3)cc2)cc1S(=O)(=O)C(F)(F)F` [AZD4320] + Nc1ccn([C@@H]2O[C@H](CO)[C@@H](O)C2(F)F)c(=O)n1 [Gemcitabine] (first compound max 1 µM, 7x7, partner max 0.3 µM), the “combination Emax” value in the test on NB13 (Neuroblastoma) came out at 0.934. In addition, the Bliss excess in the test on 769-P (Kidney Carcinoma) was -0.0672; in the test with IM-9 (Non-Cancerous) it was 0.043; in test [1], 0.0836; in [2], -0.108; in test [3], 0.0579; in test [4], 0.0024. For the same molecule, the Bliss excess in test [5] is -0.0321.

With `COc1nnc2ccc(N3CCC(c4ccc(OCCN5CCN(C)C(=O)[C@H]5C)cc4)CC3)nn12` [AZD5153] + CN(CC[C@H](CSC1=CC=CC=C1)NC2=C(C=C(C=C2)S(=O)(=O)NC(=O)C3=CC=C(C=C3)N4CCC(CC4)[C@H](C5=CC=CC=C5C6=CC=C(C=C6)Cl)O)S(=O)(=O)C(F)(F)F)CCO [AZD4320] (first compound max 1 µM, 7x7, partner max 1 µM), the “combination Emax” value came to 0.957 in the test on 5637 (Bladder Carcinoma); 0.754 in [6]; 0.754 in test [7]; 0.598 in test [8]; 0.918 in test [9]; 0.595 in test [10]. The “combination Emax” value in test [11] was determined as 0.975; in test [12], 0.357; in test [13] it was 0.519; in [14], 0.384; in [15], 0.915; in test [16], 0.695.

`Cc1cc2ncnn2cc1Nc1ncc2c(n1)n(C1CCOCC1)c(=O)n2C` [AZD7648] + COc1cc([C@@H]2c3cc4c(cc3[C@@H](O[C@@H]3O[C@@H]5CO[C@@H](C)O[C@H]5[C@H](O)[C@H]3O)[C@H]3COC(=O)[C@H]23)OCO4)cc(OC)c1O [Etoposide] (first compound max 10 µM, 7x7, partner max 10 µM): in the test with NB13 (Neuroblastoma), the “combination Emax” value was found to be 0.653. In addition, the Bliss excess in the test on 769-P (Kidney Carcinoma) is 0.0859; in the test with IM-9 (Non-Cancerous) it was 0.12; in test [1], -0.0132; in test [2], 0.0472; in test [3], 0.0595; in [4], 0.0189. For the same molecule, the Bliss excess in test [5] was determined as 0.085.

As to `CC(=O)c1c(C)c2cnc(Nc3ccc(N4CCNCC4)cn3)nc2n(C2CCCC2)c1=O` [Palbociclib] + CN(CC[C@H](CSC1=CC=CC=C1)NC2=C(C=C(C=C2)S(=O)(=O)NC(=O)C3=CC=C(C=C3)N4CCC(CC4)[C@H](C5=CC=CC=C5C6=CC=C(C=C6)Cl)O)S(=O)(=O)C(F)(F)F)CCO [AZD4320] (first compound max 10 µM, 7x7, partner max 1 µM), the “combination Emax” value with 5637 (Bladder Carcinoma) worked out at 0.619; in [6], 0.0747; in test [7] it was 0.497; in test [8] it was 0.336; in test [9], 0.839; in [10], 0.421. Besides, the “combination Emax” value in test [11] came to 0.917; in test [12] it was 0.275; in test [13] it was 0.498; in test [14], 0.257; in [15], 0.449; in test [16] it was 0.303.

`N#Cc1cnc(Nc2cc(NC[C@H]3CNCCO3)c(C(F)(F)F)cn2)cn1` [SRA737] + C=CCn1c(=O)c2cnc(Nc3ccc(N4CCN(C)CC4)cc3)nc2n1-c1cccc(C(C)(C)O)n1 [AZD1775] (first compound max 10 µM, partner max 1 µM): the “combination Emax” value in the test on NB13 (Neuroblastoma) worked out at 0.853. Moreover, the Bliss excess in the test on 769-P (Kidney Carcinoma) is 0.0166; with IM-9 (Non-Cancerous) it was 0.156; in test [1], 0.0319; in [2], -0.0452; in [3] it was -0.0074; in test [4], -0.0132. In addition, the Bliss excess in test [5] came out at 0.097.

Consider `N#Cc1cnc(Nc2cc(NC[C@H]3CNCCO3)c(C(F)(F)F)cn2)cn1` [SRA737] + CCc1c2c(nc3ccc(O)cc13)-c1cc3c(c(=O)n1C2)COC(=O)[C@]3(O)CC [SN-38] (first compound max 10 µM, 7x7, partner max 0.3 µM), for which the “combination Emax” value in the test on NB13 (Neuroblastoma) turned out to be 0.88. For the same molecule, the Bliss excess in the test on 769-P (Kidney Carcinoma) was -0.0284; in the test with IM-9 (Non-Cancerous), 0.0219; in test [1], -0.0704; in [2], -0.0793; in test [3], -0.0377; in test [4], -0.031. The Bliss excess in [5] was -0.0496.

As for `N#Cc1cnc(Nc2cc(NC[C@H]3CNCCO3)c(C(F)(F)F)cn2)cn1` [SRA737] + Nc1ccn([C@@H]2O[C@H](CO)[C@@H](O)C2(F)F)c(=O)n1 [Gemcitabine] (first compound max 10 µM, 7x7, partner max 0.3 µM), the Bliss excess was -0.0313 in the test on 769-P (Kidney Carcinoma); 0.0254 with IM-9 (Non-Cancerous); -0.0375 in test [1]; -0.0002 in test [2]; 0.0472 in test [3]; -0.0067 in [4]. For the same molecule, the Bliss excess in test [5] amounted to 0.0099.

On to `N#Cc1cnc(Nc2cc(NC[C@H]3CNCCO3)c(C(F)(F)F)cn2)cn1` [SRA737] + O=c1[nH]cc(F)c(=O)[nH]1 [5-Fluorouracil] (first compound max 10 µM, 7x7, partner max 20 µM), for which the “combination Emax” value with NB13 (Neuroblastoma) is 0.732. Besides, the Bliss excess is -0.112 in the test on 769-P (Kidney Carcinoma); 0.0007 with IM-9 (Non-Cancerous); -0.082 in test [1]; -0.122 in test [2]; 0.0467 in test [3]; 0.0202 in test [4]. For the same molecule, the Bliss excess in test [5] was -0.0066.

For `C[C@@H](c1ccc2nccn2c1)n1nnc2ncc(-c3cnn(C)c3)nc21` [Savolitinib] + CN(CC[C@H](CSC1=CC=CC=C1)NC2=C(C=C(C=C2)S(=O)(=O)NC(=O)C3=CC=C(C=C3)N4CCC(CC4)[C@H](C5=CC=CC=C5C6=CC=C(C=C6)Cl)O)S(=O)(=O)C(F)(F)F)CCO [AZD4320] (first compound max 1 µM, 7x7, partner max 1 µM), the “combination Emax” value amounted to 0.179 with 5637 (Bladder Carcinoma); 0.127 in test [6]; 0.189 in test [7]; 0.0638 in test [8]; 0.78 in [9]; 0.2 in [10]. Further, the “combination Emax” value in [11] is 0.556; in [12], 0.134; in test [13], 0.155; in [14], 0.213; in test [15] it was 0.476; in test [16], 0.236.
